According to ChEMBL document CHEMBL3217428, “Synthesis and evaluation of novel 5-sulfonyl-indolin-2-ones as potent cytotoxic agents” (Medchemcomm, 2011):
Active and inactive are the calls of the source. The rule behind the calls is not given here.

Experiments:
A549 [1] = experiment: Cytotoxicity against human A549 cells; assay type: functional, cell-based
[2] = Cytotoxicity against human SGC7901 cells; assay type: functional, cell-based; settings: SGC-7901
[3] = Cytotoxicity against human ECA109 cells; assay type: functional, cell-based; settings: ECa-109
HCT-116 = experiment: Cytotoxicity against human HCT116 cells; assay type: functional, cell-based
[4] = molecular target: Fibroblast growth factor receptor 2 (Homo sapiens) (UniProt P21802); experiment: Inhibition of FGFR2 (unknown origin) at 50 uM
A549 [5] = experiment: Induction of apoptosis in human A549 cells assessed as DNA fragmentation at 1.25 to 5 uM after 72 hrs by flow cytometry; assay type: functional, cell-based
A549 [6] = experiment: Induction of apoptosis in human A549 cells assessed as hypodiploid DNA at 5 uM after 72 hrs by flow cytometry; assay type: functional, cell-based
A549 [7] = experiment: Cell cycle arrest in human A549 cells assessed as accumulation at sub-G0/G1 phase at 5 uM after 72 hrs by flow cytometry; assay type: functional
HUVEC [8] = experiment: Antiangiogenic activity in HUVEC assessed as reduction in tube formation by matrigel assay; assay type: functional, cell-based; settings: Homo sapiens
HUVEC [9] = experiment: Antiangiogenic activity in HUVEC assessed as reduction in anastomoses formation by matrigel assay; assay type: functional, cell-based; settings: Homo sapiens
HUVEC [10] = experiment: Antimigratory activity in HUVEC at 2 uM; assay type: functional, cell-based; settings: Homo sapiens
A549 [11] = experiment: Induction of apoptosis in human A549 cells at 5 uM after 72 hrs by flow cytometry; assay type: functional

Sequence of Fibroblast growth factor receptor 2 (Homo sapiens) (P21802 22-821 limits assumed): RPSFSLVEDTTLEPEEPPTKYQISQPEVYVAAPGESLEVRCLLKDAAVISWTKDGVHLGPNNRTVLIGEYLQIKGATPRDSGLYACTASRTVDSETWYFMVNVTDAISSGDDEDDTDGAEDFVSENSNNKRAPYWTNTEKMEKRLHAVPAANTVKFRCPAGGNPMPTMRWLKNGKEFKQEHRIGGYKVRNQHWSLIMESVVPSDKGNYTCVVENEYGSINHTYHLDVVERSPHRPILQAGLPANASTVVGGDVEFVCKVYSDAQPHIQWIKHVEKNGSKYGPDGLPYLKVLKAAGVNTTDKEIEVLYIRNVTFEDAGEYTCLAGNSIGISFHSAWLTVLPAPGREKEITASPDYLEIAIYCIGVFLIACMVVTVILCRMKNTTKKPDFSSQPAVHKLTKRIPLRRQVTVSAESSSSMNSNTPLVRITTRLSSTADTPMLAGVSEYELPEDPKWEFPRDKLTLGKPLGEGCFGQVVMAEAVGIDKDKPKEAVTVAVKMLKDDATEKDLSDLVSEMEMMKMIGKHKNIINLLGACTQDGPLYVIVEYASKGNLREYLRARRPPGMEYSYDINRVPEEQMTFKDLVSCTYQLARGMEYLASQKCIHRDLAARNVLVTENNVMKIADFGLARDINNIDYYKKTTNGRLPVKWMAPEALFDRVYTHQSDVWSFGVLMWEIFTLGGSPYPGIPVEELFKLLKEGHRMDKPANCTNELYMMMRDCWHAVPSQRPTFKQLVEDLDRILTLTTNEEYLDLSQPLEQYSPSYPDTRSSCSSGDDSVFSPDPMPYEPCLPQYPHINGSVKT

SMILES | inhibition (A549 [1]) | IC50 [2] [µM] | IC50 [3] [µM] | IC50 (HCT-116) [µM] | inhibition [4] [%] | Activity (A549 [5]) | Activity (A549 [6]) | Activity (A549 [7]) [%] | Activity (HUVEC [8]) | Activity (HUVEC [9]) | Activity (HUVEC [10]) | IC50 (A549 [1]) [µM] | Activity (A549 [11]) [%]
CCN(CC)CCNC(=O)c1c(C)[nH]c(/C=C2\C(=O)Nc3ccc(/C=C/S(=O)(=O)c4ccc(F)cc4)cc32)c1C | Dose-dependent effect | 6.87 | 5.74 | 1.82 | 76.6 | Active | Active | 68.21 | Dose-dependent effect | Dose-dependent effect | Active |  | 
CCN(CC)CCNC(=O)c1c(C)[nH]c(/C=C2\C(=O)Nc3ccc(/C=C/S(=O)(=O)Cc4ccccc4)cc32)c1C |  | 14.5 | 10.6 | 13.7 |  |  |  |  |  |  |  | 8.05 | 
Cc1[nH]c(/C=C2\C(=O)Nc3ccc(/C=C/S(=O)(=O)c4ccc(F)cc4)cc32)c(C)c1C(=O)NCCCN(C)C |  | 6.35 | 2.87 | 9.84 |  |  |  |  |  |  |  | > 12.5 | 
CCN(CC)CCNC(=O)c1c(C)[nH]c(/C=C2\C(=O)Nc3ccc(/C=C/S(=O)(=O)Cc4ccc(Cl)cc4)cc32)c1C |  | > 25 | > 25 | > 25 |  |  |  |  |  |  |  | > 25.3 | 
O=c1c(O)c(-c2ccc(O)c(O)c2)oc2cc(O)cc(O)c12 |  |  |  |  | 67.3 |  |  |  |  |  |  |  | 
CCN(CC)CCNC(=O)c1c(C)[nH]c(/C=C2\C(=O)Nc3ccc(S(=O)(=O)/C=C/c4ccc(Cl)cc4)cc32)c1C |  | 2.58 | 4.84 | 1.95 | 72 |  |  |  |  |  |  | 2.85 | 
CCN(CC)CCNC(=O)c1c(C)[nH]c(/C=C2\C(=O)Nc3ccc(/C=C/S(=O)(=O)Cc4ccc(F)cc4)cc32)c1C |  | > 12.5 | > 12.5 | > 12.5 |  |  |  |  |  |  |  | > 12.5 | 
CCN(CC)CCNC(=O)c1c(C)[nH]c(/C=C2\C(=O)Nc3ccc(S(=O)(=O)/C=C/c4ccccc4)cc32)c1C |  | 4.99 | 1.37 | 2.41 |  |  |  |  |  |  |  | 2.87 | 
CCN(CC)CCNC(=O)c1c(C)[nH]c(/C=C2\C(=O)Nc3ccc(/C=C/S(=O)(=O)c4ccc(Br)cc4)cc32)c1C |  | 2.28 | 6.23 | 3.35 | 67.8 |  |  |  |  |  |  | 5.21 | 
CCN(CC)CCCNC(=O)c1c(C)[nH]c(/C=C2\C(=O)Nc3ccc(/C=C/S(=O)(=O)c4ccc(F)cc4)cc32)c1C |  | 3.45 | 4.75 | 5.77 |  |  |  |  |  |  |  | > 12.5 | 
Cc1[nH]c(/C=C2\C(=O)Nc3ccc(/C=C/S(=O)(=O)c4ccc(F)cc4)cc32)c(C)c1C(=O)NCCN(C)C |  | 6.25 | 2.99 | 7.2 |  |  |  |  |  |  |  | 6.62 | 
CCN(CC)CCNC(=O)c1c(C)[nH]c(/C=C2\C(=O)Nc3ccc(/C=C/S(=O)(=O)Cc4cccc(F)c4)cc32)c1C |  | 11.1 | 7.33 | 12.7 |  |  |  |  |  |  |  | 8.41 | 
CCN(CC)CCNC(=O)c1c(C)[nH]c(/C=C2\C(=O)Nc3ccc(/C=C/S(=O)(=O)c4ccccc4)cc32)c1C |  | 5.82 | 2.7 | 6.44 |  |  |  |  |  |  |  | 6.86 | 
CCN(CC)CCNC(=O)c1c(C)[nH]c(/C=C2\C(=O)Nc3ccc(/C=C/S(C)(=O)=O)cc32)c1C |  | 16.7 | 12.5 | 2.64 |  |  |  |  |  |  |  | 29.1 | 
CCN(CC)CCNC(=O)c1c(C)[nH]c(/C=C2\C(=O)Nc3ccc(F)cc32)c1C [SUNITINIB] |  | 18.6 | 16.9 | 2.11 | 61.8 |  |  |  | Dose-dependent effect | Dose-dependent effect |  | 18.6 | 15.81
